Entries after “also recorded” stand apart in the source; their conditions may differ.
Key:
[1] = Pilot observation studies in rats, acute and repeated oral administration
Experimental: Similarly, in a separate study, physostigmine (1, 3, 10 or 30 mg/kg p.o.) or vehicle were administered acutely to groups of 8 rats.
In pilot studies of repeated administration, nepicastat (100 mg/kg p.o.) or vehicle was administered twice daily (06:00 and 18:00 h) for 10 days (once on day 11) to groups of 8 rats. The weights of the animals were monitored throughout the study and, on day 5, the animals were observed ‘blind’ by an independent observer in order to assess any overt behavioural/physiological effects following repeated administration. In a separate study, groups of 8 rats received vehicle or physostigmine (0.3, 1, 3 or 10 mg/kg p.o.) using the same dosing schedule. The weights of the animals were monitored throughout the study.

[2] = Pharmacokinetics and brain levels in rats; type: in vivo
Experimental: Male rats (Crl: CD BR Vaf+) weighing 180-220 g were fasted overnight before dosing and until 4 hr after dosing. Doses were formulated in water containing 2% 1-hydroxypropyl methylcellulose (50 centipoises viscosity), 1% benzyl alcohol, and 0.6% Tween 80 (all obtained from Sigma Chemical Company). Concentration of drug in the dose solutions was 5, 15, and 50 mg/ml for the 10, 30, and 100 mg/kg doses, respectively, and was verified by liquid chromatography (LC). The 5 mg/ml dose was a clear solution and the higher concentrations were a translucent suspension. Dose volumes were 2.0 ml/kg. At various times after dosing, samples of blood were obtained by cardiac puncture with heparinized syringes, and plasma was prepared by centrifugation. Brains of rats were surgically excised, and all samples were frozen at −20° C. until analysis.
Aliquots of plasma (0.05 or 0.5 ml) were mixed with internal standard (50 μl of methanol containing 5 μg/ml a monofluoro analog of nepicastat, and 5 mg/ml dithiothreitol). […] Concentrations of analytes were determined from a standard curve generated from the analysis of plasma from untreated rats fortified with known concentrations of analyte. Plasma concentration data are expressed as μg (free base) per ml. […]
Following addition of 100 μl of methanol to the aqueous phase (to disperse any emulsion), 100 μl aliquots were assayed by LC as described for plasma. Level in brain are expressed as μg (free base) per g of brain tissue.
Pharmacokinetic parameters were calculated from mean plasma concentrations. Plasma half-life (T1/2) was calculated as 0.693/β, where β is the elimination rate constant determined by linear regression of the log plasma concentration vs. time data within the terminal linear portion of the data. Areas under the plasma concentration vs. time curve (AUC) from zero to the time of the last quantifiable plasma concentrations were calculated by the trapezoidal rule. AUC from zero to infinity (AUCtotal 1 was calculated as: AUCtotal=AUC(0−Clast)+Clast/β where Clast is the last quantifiable plasma concentration.

## Cl.NCc1c[nH]c(=S)n1[C@H]1CCc2c(F)cc(F)cc2C1 [nepicastat, (S)-5-Aminomethyl-1-(5,7-difluoro-1,2,3,4-tetrahydronaphth-2-yl)-2,3-dihydro-2-thioxo-1H-imidazole hydrochloride]
[1]; nepicastat 100 mg/kg p.o. twice daily
  overt effects of repeated administration: no overt effects
[1]; nepicastat 100 mg/kg p.o. twice daily, 11 days
  irritability when handled: more irritable than controls
[1]; nepicastat 100 mg/kg p.o. twice daily, after 11 days
  mean loss in body weight: 28 g
[1]; nepicastat 30 or 100 mg/kg p.o. acutely
  overt behavioural/physiological changes: did not induce any overt behavioural/physiological changes
[2]; 30 mg/kg oral
  plasma AUCtotal, higher in female than in male rats: 77%
[2]; male rats, 10 mg/kg oral, from 2 hr onward, hydrochloride, 10 mg/kg
  brain vs plasma concentrations: concentrations of nepicastat in brain exceeded those in plasma; also recorded: levels of nepicastat in brain were greater than in plasma
[2]; male rats, 10-100 mg/kg
  relationship between AUCtotal and dose: linear

Reference: patent US10561638B2, “Methods for treating dependence” (Biotie Therapies, Inc., priority 2007, dated 2020)
